Where two headings read alike, the source gives them in different places.
B1: PfHGXPRT (Plasmodium falciparum FCR-3/Gambia) (protein)
chain: MPIPNNPGAGENAFDPVFVNDDDGYDLDSFMIPAHYKKYLTKVLVPNGVIKNRIEKLAYDIKKVYNNEEFHILCLLKGSRGFFTALLKHLSRIHNYSAVETSKPLFGEHYVRVKSYCNDQSTGTLEIVSEDLSCLKGKHVLIVEDIIDTGKTLVKFCEYLKKFEIKTVAIACLFIKRTPLWNGFKADFVGFSIPDHFVVGYSLDYNEIFRDLDHCCLVNDEGKKKYKATSL

Tests used:
PfHGXPRT = biological target: T1, PfHGXPRT (Plasmodium falciparum, UniProt P20035); assay: PfHGXPRT steady-state kinetics; assay type: biochemical
T1 sequence (P20035 1-231): B1 chain

[1] = substrate: O=c1[nH]cnc2nc[nH]c12; assay: purified protein, by the assay type; details: other: unactivated enzyme; pH 7.4

Molecule	Km (PfHGXPRT; read-out: Km, activated PfHGXPRT, substrate-activated enzyme) [µM]	Km (PfHGXPRT; read-out: Km, unactivated PfHGXPRT, unactivated enzyme) [µM]	Km [1] [µM]
O=P(O)(O)OC[C@H]1O[C@H](OP(=O)(O)OP(=O)(O)O)[C@H](O)[C@@H]1O [PRPP, 5-phospho-α-D-ribosyl 1-pyrophosphate]	185 ± 14	55 ± 11	–
B1	–	–	2.7 ± 0.3
